How the values were obtained:
[1] = tested on: Mn-sod; experiment: Zebrafish oxidative aging model (menadione), Mn-sod gene expression by RT-qPCR; assay type: in vivo; conditions: I-8 at 2.5, 7.5, and 22.2 µg/mL, 22 hrs, 4 µM menadione; compared to the modeling group, statistical significance
Procedure: (§1) Experimental animal: Healthy wild-type AB strain zebrafish at 48 hpf (hours post-fertilization)
(§2) Healthy AB strain zebrafish were taken as experimental animal. A zebrafish oxidative aging model was constructed using chemical mutagenesis with 4 µM menadione as the modeling drug. Fucoxanthin was used as a positive control compound. After treating the zebrafish oxidative aging model with different concentrations of I-8 for 22 hrs, changes in the reactive oxygen species (ROS) content, β-galactosidase activity, and the expression of three antioxidant and anti-aging related genes (Cu/Zn-sod, Mn-sod, and ampk) were respectively detected and statistically analyzed.
(§3) During the experiment, the modeling drug, positive compound, and I-8 were dispersed together in the culture water of zebrafish. […] Cell ROX™ Deep Red fluorescent probes and β-galactosidase staining kits were used to specifically label ROS and β-galactosidase in the fish, respectively, and the staining intensity was quantified using Image-Pro Plus software. After extracting RNA from the whole fish, the expression changes of three genes (Cu/Zn-sod, Mn-sod, and ampk) in the fish were detected at the mRNA level using Quantitative Real-time PCR (RT-qPCR). The data were statistically analyzed using GraphPad software.

[2] = tested on: ampk; experiment: Zebrafish oxidative aging model (menadione), ampk gene expression by RT-qPCR; assay type: in vivo; conditions: I-8 at 2.5 µg/mL, 22 hrs, 4 µM menadione; compared to the modeling group, statistical significance
Procedure: as §1, §2, §3

[3] = tested on: TRPV1; experiment: TRPV1 gene expression in HaCaT after capsaicin stimulation (q-PCR); assay type: cell-based, human; conditions: 15 µM capsaicin, dose-dependent
From the text: In the following Test Examples 6-1 and 6-2, using immortalized keratinocytes (HaCaT) and UVB to establish a model, after the compound to be test was applied to HaCaT, the expression levels of TNF-α, IL-8, IL-1β and EP2 were detected; using immortalized keratinocytes (HaCaT) and capsaicin to establish a model, after the compound to be test was applied to HaCaT, the expression level of TRPV1 was detected, so as to evaluate the soothing effect of the test substance from multiple dimensions.
• 1) Cell inoculation: HaCaT cells were inoculated into a 6-well plate at 6 × 10^5/well, cultured in an incubator (37 °C, 5% CO2) for 12 hrs, and a normal control group (0 µM capsaicin + vehicle control), a model control group […] concentration group (15 µM capsaicin + low concentration compound), a medium concentration group (15 µM capsaicin + medium concentration compound), and a high concentration group (15 µM capsaicin + high concentration compound) were respectively provided. • 2) Induction and administration: The culture solution in the 6-well plate was discarded and the administration operation was carried out. The culture solution containing the test substance and the capsaicin stock solution was added according to the above drug group, and 1 mL was added to each well. […]

[4] = tested on: HaCaT cells; experiment: ROS content / ROS scavenging rate in HaCaT after UVB radiation (DCFH-DA); assay type: cell-based, human; conditions: for ROS scavenging rate: HaCaT cells after UVB radiation
From the text: Oxidative reactions such as respiration and metabolism in organisms generate reactive free radicals. Under normal bodily conditions, free radicals have a stable scavenging system, so that the free radical content of the body is kept at a relatively low concentration. Oxidative stress (OS) refers to an imbalance between oxidation and antioxidation in the body due to endogenous and/or exogenous stimuli, resulting in excessive free radical production. Excessive free radicals produce a series of negative effects in the body, including oxidative damage to biomolecules and further causing cell death and tissue damage, etc. In organisms, almost all ROS, except for trace amounts utilized by the body, should be promptly scavenged. Medium Wave Erythema Effect Ultraviolet (UVB) (280-319 nm) radiation damage is the most important factor leading to photoaging of the skin, primarily damaging keratinocytes (HaCaT), specifically manifested as the accumulation of photoproducts, increased ROS, and exacerbated oxidative damage, etc. Over long periods of evolution, organisms have developed a complete antioxidant system, maintaining a dynamic balance between the production and elimination of free radicals. This is an adaptive mechanism of organisms, and the main members include antioxidant enzymes, antioxidants, and proteins that separate transition metals, all of which can specifically limit oxidative damage to the body. Therefore, the antioxidant efficacy of a test compound can be evaluated by detecting the ROS scavenging rate in keratinocytes after UVB radiation.
• 1) Cell inoculation: HaCaT cells were inoculated into a 96-well plate at 2 × 10^4/well, cultured in an incubator (37 °C, 5% CO2) for 12 hrs, and a control group (120 mJ/cm^2 + vehicle control), a low concentration group (120 mJ/cm^2 + low concentration compound), a medium concentration group (120 mJ/cm^2 + medium concentration compound), and a high concentration group (120 mJ/cm^2 + high concentration compound) were respectively provided. • 2) UVB modeling: The HaCaT cells were washed 3 times with D'Hanks before UVB radiation, 50 µL of D'Hanks was added into the wells, to make the cells to be immersed, and the control group was coated with tinfoil and placed in the dark. For the test groups, UVB modeling was performed on the group requiring radiation, respectively. • 3) Administration: DMEM medium containing different concentrations of compound were added to each test group for continued culture for 24 hrs. • 4) Transferring the ROS fluorescent probe: DCFH-DA was Diluted to a final concentration of 10 µmol/L using PBS at a dilution ratio of 1:1000. The culture medium in all wells except the bare cell wells was discarded. After washing three times with PBS, 200 µL of DCFH-DA working solution was added to each well, then incubated in a CO2 incubator for 30 min, and after incubation, the cells in each well were washed with PBS for 3 times. • 5) Fluorescence analysis. The 96-well plate to be tested was placed on the detection stage of the fluorescence microplate reader, with the […] set to 525 nm, the excitation light wavelength set to 488 nm, and the reading was analyzed.
ROS scavenging rate (%) = (S(Modelcontrolgroup)−S(Samplegroup))/(S(Modelcontrolgroup)) × 100% [formula] wherein S is fluorescence intensity.

**Q.** For `O=S1(=O)Oc2cc(O)ccc2-c2ccc(O)cc21` [Compound I-8], which “expression of Mn-sod gene” value [1] is on record?
**A.** The value was “upregulated”.

**Q.** What about the “expression of the ampk gene” value [2] of the same compound?
**A.** Its value is “upregulated”.

**Q.** What about the “expression level of TRPV1” value [3] of the same compound?
**A.** Its value is “downregulating”.

**Q.** What about the “ROS content in HaCaT after UVB radiation” value ([4]; HaCaT, UVB 120 mJ/cm^2, 24 hrs, low, medium, high concentration) of the same compound?
**A.** Its value is “scavenging ROS in a dose-dependent manner”.

**Q.** What about the ROS scavenging rate ([4]; content 0.00015625%) of the same compound?
**A.** The ROS scavenging rate was 12%.

**Q.** And the ROS scavenging rate ([4]; content 0.000625%)?
**A.** The ROS scavenging rate was 22%.

**Q.** And the ROS scavenging rate ([4]; content 0.0025%)?
**A.** Its ROS scavenging rate is 26%.

Reference: patent EP4803511A1, “SMALL MOLECULE COMPOUND HAVING SULFONIC ACID OR SULFINIC ACID LACTONE STRUCTURE, COMPOSITION AND USE THEREOF” (Hangzhou Phecdamed Co., Ltd., priority 2023, dated 2025)
